Test results published in ChEMBL document CHEMBL1150608, “Five new labdane diterpenes from Aster oharai” (2002).
≈ marks a conversion by molar mass, not a printed value.

How the values were obtained:
Format in all cases: functional
Conditions in all cases: read-out: ED50 (the source's name)
LOX IMVI = assay: Cytotoxicity against human LOXIMVI cells by sulforhodamine B method
SK-MEL-2 = assay: Cytotoxicity against human SK-MEL-2 cells by sulforhodamine B method
SNB-19 = assay: Cytotoxicity against human SNB19 cells by sulforhodamine B method
U-251 = assay: Cytotoxicity against human U251 cells by sulforhodamine B method
SW-620 = assay: Cytotoxicity against human SW620 cells by sulforhodamine B method
HCT-15 = assay: Cytotoxicity against human HCT15 cells by sulforhodamine B method
A549 = assay: Cytotoxicity against human A549 cells by sulforhodamine B method
SK-OV-3 = assay: Cytotoxicity against human SKOV3 cells by sulforhodamine B method

For C=C[C@@](C)(CC[C@H]1C(C)=CC[C@H]2C(C)(C)CCC[C@]12C)O[C@@H]1O[C@@H](C)[C@H](O)[C@@H](O)[C@H]1OC(C)=O, the EC50 (LOX IMVI) was > 10 µg/mL, the EC50 (SK-MEL-2) was > 10 µg/mL and the EC50 (SNB-19) was > 10 µg/mL. For the same molecule, the EC50 (U-251) was > 10 µg/mL, the EC50 (SW-620) was > 10 µg/mL and the EC50 (HCT-15) was > 10 µg/mL. The EC50 (A549) was > 10 µg/mL and the EC50 (SK-OV-3) was > 10 µg/mL.
C=C[C@@](C)(CCC1=C(C)[C@H](OO)C[C@H]2C(C)(C)CCC[C@]12C)O[C@@H]1O[C@@H](C)[C@@H](OC(C)=O)[C@H](O)[C@H]1O was tested, and the EC50 (LOX IMVI) was > 10 µg/mL, the EC50 (SK-MEL-2) was > 10 µg/mL and the EC50 (SNB-19) was > 10 µg/mL. The EC50 (U-251) was > 10 µg/mL, the EC50 (SW-620) was > 10 µg/mL and the EC50 (HCT-15) was > 10 µg/mL. For the same molecule, the EC50 (A549) was > 10 µg/mL and the EC50 (SK-OV-3) was > 10 µg/mL.
In the case of C=C[C@@](C)(CC[C@H]1C(C)=CC[C@H]2C(C)(C)CCC[C@]12C)O[C@@H]1O[C@@H](C)[C@H](OC(C)=O)[C@@H](O)[C@H]1O, the EC50 (LOX IMVI) is reported as > 10 µg/mL, the EC50 (SK-MEL-2) is reported as > 10 µg/mL and the EC50 (SNB-19) is reported as > 10 µg/mL. For the same molecule, the EC50 (U-251) was > 10 µg/mL, the EC50 (SW-620) was > 10 µg/mL and the EC50 (HCT-15) was > 10 µg/mL. For the same molecule, the EC50 (A549) was > 10 µg/mL and the EC50 (SK-OV-3) was > 10 µg/mL.
With C=C[C@@](C)(CC[C@H]1C(C)=CC[C@H]2C(C)(C)CCC[C@]12C)O[C@@H]1O[C@@H](C)[C@H](O)[C@@H](OC(C)=O)[C@H]1O the EC50 (LOX IMVI) was > 10 µg/mL, the EC50 (SK-MEL-2) was > 10 µg/mL and the EC50 (SNB-19) was > 10 µg/mL. The EC50 (U-251) was > 10 µg/mL, the EC50 (SW-620) was > 10 µg/mL and the EC50 (HCT-15) was > 10 µg/mL. The EC50 (A549) was > 10 µg/mL and the EC50 (SK-OV-3) was > 10 µg/mL.
Molecule COc1cccc2c1C(=O)c1c(O)c3c(c(O)c1C2=O)C[C@@](O)(C(=O)CO)C[C@@H]3O[C@H]1C[C@H](N)[C@H](O)[C@H](C)O1 [DOXORUBICIN] has an EC50 (LOX IMVI) of 0.001 µg/mL (≈ 0.00184 µM), an EC50 (SK-MEL-2) of 0.002 µg/mL (≈ 0.00368 µM) and an EC50 (SNB-19) of 0.002 µg/mL (≈ 0.00368 µM). For the same molecule, the EC50 (U-251) was 0.001 µg/mL (≈ 0.00184 µM), the EC50 (SW-620) was 0.003 µg/mL (≈ 0.00552 µM) and the EC50 (HCT-15) was 0.006 µg/mL (≈ 0.011 µM). It also gave an EC50 (A549) of 0.001 µg/mL (≈ 0.00184 µM) and an EC50 (SK-OV-3) of 0.01 µg/mL (≈ 0.0184 µM).
